In patent US9681664B2, “Macrocyclic picolinamides as fungicides” (Dow Agrosciences LLC, priority 2012, dated 2017) one finds pest or weed control data, which are given here for eleven molecules.

Holding throughout (type): in vivo
One test deals with Cercospora beticola. Briefly: Leaf spot of sugar beets (CERCBE) disease control. The note with it: 24 h, 1 Day Protectant, high volume, read-out: Disease Control CERCBE 1 DP. The protocol:
Technical grades of materials were dissolved in acetone, which were then mixed with nine volumes of water containing 110 ppm Triton X-100. The fungicide solutions were applied onto wheat seedlings using an automated booth sprayer to run-off. All sprayed plants were allowed to air dry prior to further handling. All fungicides were evaluated using the aforementioned method for their activity vs. all target diseases. Wheat leaf blotch and brown rust activity were also evaluated using track spray applications, in which case the fungicides were formulated as EC formulations, containing 0.1% Trycol 5941 in the spray solutions. Sugar beet plants (variety HH88) were grown in soil-less Metro mix and trimmed regularly to maintain a uniform plant size prior to test. Plants were inoculated with a spore suspension 24 hr after fungicide treatments. Inoculated plants were kept in a dew chamber at 22° C. for 48 hr then incubated in a greenhouse set at 24° C. under a clear plastic hood with bottom ventilation until disease symptoms were fully expressed. Fungicide formulation, application and disease assessment on the sprayed leaves followed the procedures as described in the Example A.

A further test concerns Erysiphe cichoracearum. Briefly: Powdery mildew of cucumber (ERYSCI) disease control. The note with it: Golovinomyces cichoracearum, 24 h, 1 Day Protectant, high volume, read-out: Disease Control ERYSCI 1 DP. The protocol:
Technical grades of materials were dissolved in acetone, which were then mixed with nine volumes of water containing 110 ppm Triton X-100. The fungicide solutions were applied onto wheat seedlings using an automated booth sprayer to run-off. All sprayed plants were allowed to air dry prior to further handling. All fungicides were evaluated using the aforementioned method for their activity vs. all target diseases. Wheat leaf blotch and brown rust activity were also evaluated using track spray applications, in which case the fungicides were formulated as EC formulations, containing 0.1% Trycol 5941 in the spray solutions. Cucumber seedlings (variety Bush Pickle) were grown in soil-less Metro mix, with one plant per pot, and used in the test when 12 to 14 days old. Plants were inoculated with a spore suspension 24 hr following fungicide treatments. After inoculation the plants remained in the greenhouse set at 20° C. until disease was fully expressed. Fungicide formulation, application and disease assessment on the sprayed leaves followed the procedures as described in the Example A.

The subject of the next test is Uncinula necator. Briefly: Grape powdery mildew (UNCINE) disease control. The settings on record: Erysiphe necator, 24 h, High volume application, 1 Day Protectant, read-out: UNCINE 1 DP disease control. The method, then: Technical grades of materials were dissolved in acetone, which were then mixed with nine volumes of water containing 110 ppm Triton X-100. The fungicide solutions were applied onto wheat seedlings using an automated booth sprayer to run-off. All sprayed plants were allowed to air dry prior to further handling. All fungicides were evaluated using the aforementioned method for their activity vs. all target diseases. Wheat leaf blotch and brown rust activity were also evaluated using track spray applications, in which case the fungicides were formulated as EC formulations, containing 0.1% Trycol 5941 in the spray solutions. Grape seedlings (variety Carignane) were grown in soil-less Metro mix, with one plant per pot, and used in the test when approximately one month old. Plants were inoculated 24 hr after fungicide treatment by shaking spores from infected leaves over test plants. Plants were maintained in a greenhouse set at 20° C. until disease was fully developed. Fungicide formulation, application and disease assessment on the sprayed leaves followed the procedures as described in the Example A.

The test system of the next test is Phakopsora pachyrhizi. Briefly: Asian soybean rust (PHAKPA) disease control. The settings on record: topical, high volume. Summed up:
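Compounds in acetone diluted with nine volumes water containing 0.011% Tween 20, sprayed to run-off on two-week-old Williams 82 soybean seedlings, inoculated 3 days before or 1 day after treatment. Plants held 24 h in dark dew room at 22 °C, 100% RH, then at 23 °C; disease severity scored on sprayed leaves.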

The subject of test [1] is Magnaporthe grisea; Anamorph: Pyricularia oryzae. Briefly: whole plant or invertebrate. The settings on record: 24 h, read-out: PYRIOR 1 DP disease control.
Test [2] has as its system Mycosphaerella graminicola; Anamorph: Septoria tritici. Briefly: Leaf blotch of wheat (SEPTTR) disease control on wheat seedlings. The settings on record: Zymoseptoria tritici, High volume application, 100 ppm. Summed up:
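Protective or curative format: Septoria tritici inoculation either preceded or followed fungicide application to first-leaf Yuma wheat. Severity scored 0–100%; control expressed versus untreated.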

For test [3], the system named is Blumeria graminis f. sp. hordei; Synonym: Erysiphe graminis f. sp. hordei. Briefly: Barley powdery mildew (ERYSGH) disease control. The settings on record: 24 h, 1 Day Protectant, high volume, read-out: Disease Control ERYSGH 1 DP. The method, then:
Technical grades of materials were dissolved in acetone, which were then mixed with nine volumes of water containing 110 ppm Triton X-100. The fungicide solutions were applied onto wheat seedlings using an automated booth sprayer to run-off. All sprayed plants were allowed to air dry prior to further handling. All fungicides were evaluated using the aforementioned method for their activity vs. all target diseases. Wheat leaf blotch and brown rust activity were also evaluated using track spray applications, in which case the fungicides were formulated as EC formulations, containing 0.1% Trycol 5941 in the spray solutions. Barley seedlings (variety Harrington) were propagated in soil-less Metro mix, with each pot having 8 to 12 plants, and used in the test when first leaf was fully emerged. Test plants were inoculated by dusting with infected stock plants 24 hr after fungicide treatments. After inoculation the plants were kept in a greenhouse set at 20° C. for disease to develop. Fungicide formulation, application and disease assessment on the sprayed leaves followed the procedures as described in the Example A.

Where [4] appears, read: 24 h, 1 Day Protectant, read-out: Disease Control PHAKPA 1DP.
Setting [5] is: 24 h, 1 Day Protectant, read-out: SEPTTR 1DP disease control.
The mark [6] stands for this setting: 72 h, 3 Day Curative, read-out: SEPTTR 3DC disease control.
[7] abbreviates: 72 h, 3 Day Curative, read-out: Disease Control PHAKPA 3DC.

SMILES strings stand for the structures. Read-outs that look alike come from different tables or passages of the source.

Consider `COc1ccnc(C(=O)N[C@H]2CCC[C@H](Oc3ccccc3)[C@@H](OCC(C)C)[C@H](C)OC2=O)c1OCOC(=O)C(C)C` [F35], for which the pest or weed control at 100 ppm (in the test on Cercospora beticola; in the test on Erysiphe cichoracearum; in the test on Uncinula necator; in test [1]; in test [2] (setting [5]); in test [2] (setting [6])) was 80 to 100% each time. Further, in test [3], the pest or weed control at 100 ppm lay within 80 to 100%. In the test on Phakopsora pachyrhizi (setting [4]), the pest or weed control at 25 ppm lay in the range of 80 to 100%.
With `COc1ccnc(C(=O)N[C@H]2CCC[C@H](Oc3ccccc3)[C@@H](Oc3ccccc3)[C@H](C)OC2=O)c1OCOC(=O)C(C)C` [F36], the pest or weed control at 100 ppm in the test on Cercospora beticola was in the range of 80 to 100%; in the test on Erysiphe cichoracearum, 0 to 80%; in the test on Uncinula necator it was 0 to 80%; in test [1] it was 80 to 100%; in test [2] (setting [5]), 80 to 100%; in test [2] (setting [6]), 80 to 100%. Also, the pest or weed control at 100 ppm in test [3] was in the range of 0 to 80%. In addition, the pest or weed control at 25 ppm in the test with Phakopsora pachyrhizi (setting [4]) and with Phakopsora pachyrhizi (setting [7]) was 80 to 100% throughout.
As for `COc1ccnc(C(=O)N[C@H]2CCC[C@H](OCC(C)C)[C@@H](OCC(C)C)[C@H](C)OC2=O)c1OCOC(=O)C(C)C` [F37], the pest or weed control at 100 ppm (with Cercospora beticola; with Erysiphe cichoracearum; in the test with Uncinula necator; in test [1]; in test [2] (setting [5]); in test [2] (setting [6])) was 80 to 100% throughout. In addition, the pest or weed control at 100 ppm in test [3] fell in the range of 80 to 100%. Further, in the test with Phakopsora pachyrhizi (setting [4]), the pest or weed control at 25 ppm was in the range of 80 to 100%.
Take `COc1ccnc(C(=O)N[C@H]2CCC[C@H](OCC(C)C)[C@@H](OC3CCCC3)[C@H](C)OC2=O)c1OCOC(=O)C(C)C` [F38]: the pest or weed control at 100 ppm (with Cercospora beticola; with Erysiphe cichoracearum; with Uncinula necator; in test [1]; in test [2] (setting [5]); in test [2] (setting [6])) was 80 to 100% each time. Besides, the pest or weed control at 100 ppm in test [3] lay within 80 to 100%. For the same molecule, the pest or weed control at 25 ppm with Phakopsora pachyrhizi (setting [4]) and in the test with Phakopsora pachyrhizi (setting [7]) was 80 to 100% each time.
For the molecule `COc1ccnc(C(=O)N[C@H]2CCC[C@H](OCC(C)C)[C@@H](OC3CCCC3)[C@H](C)OC2=O)c1OCOC(C)=O` [F39], the pest or weed control at 100 ppm in the test on Cercospora beticola was 80 to 100%; in the test on Erysiphe cichoracearum, 80 to 100%; with Uncinula necator it was 0 to 80%; in test [1] it was 80 to 100%; in test [2] (setting [5]), 80 to 100%; in test [2] (setting [6]), 80 to 100%. In test [3], the pest or weed control at 100 ppm was in the range of 80 to 100%. For the same molecule, the pest or weed control at 25 ppm in the test with Phakopsora pachyrhizi (setting [4]) and in the test on Phakopsora pachyrhizi (setting [7]) was 80 to 100% each time.
As for `COc1ccnc(C(=O)N[C@H]2CCC[C@H](Oc3ccccc3)[C@@H](OCCCc3ccccc3)[C@H](C)OC2=O)c1OCOC(C)=O` [F130], the pest or weed control at 100 ppm in the test on Cercospora beticola was 80 to 100%; in the test with Erysiphe cichoracearum it was 80 to 100%; in the test with Uncinula necator it was 0 to 80%; in test [1], 80 to 100%; in test [2] (setting [5]), 80 to 100%; in test [2] (setting [6]) it was 80 to 100%. In addition, in test [3], the pest or weed control at 100 ppm was 0 to 80%. For the same molecule, the pest or weed control at 25 ppm in the test with Phakopsora pachyrhizi (setting [4]) is 80 to 100%; with Phakopsora pachyrhizi (setting [7]), 0 to 80%.
As to `CCCO[C@H]1CCC[C@H](NC(=O)c2nccc(OC)c2OCOC(C)=O)C(=O)O[C@@H](C)[C@@H]1Oc1ccccc1` [F138], the pest or weed control at 100 ppm with Cercospora beticola lay in the range of 80 to 100%; with Erysiphe cichoracearum it was 0 to 80%; with Uncinula necator, 0 to 80%; in test [1] it was 80 to 100%; in test [2] (setting [5]) it was 80 to 100%; in test [2] (setting [6]) it was 80 to 100%. Besides, the pest or weed control at 100 ppm in test [3] was in the range of 0 to 80%. Moreover, the pest or weed control at 25 ppm in the test with Phakopsora pachyrhizi (setting [4]) and with Phakopsora pachyrhizi (setting [7]) was 80 to 100% each time.
As for `CCCO[C@H]1CCC[C@H](NC(=O)c2nccc(OC)c2OCOC(=O)C(C)C)C(=O)O[C@@H](C)[C@@H]1Oc1ccccc1` [F139], the pest or weed control at 100 ppm is 80 to 100% with Cercospora beticola; 0 to 80% with Erysiphe cichoracearum; 0 to 80% in the test with Uncinula necator; 80 to 100% in test [1]; 80 to 100% in test [2] (setting [5]); 80 to 100% in test [2] (setting [6]). In test [3], the pest or weed control at 100 ppm is under 0%. Further, the pest or weed control at 25 ppm with Phakopsora pachyrhizi (setting [4]) and in the test with Phakopsora pachyrhizi (setting [7]) was 80 to 100% each time.
Consider `CCCO[C@H]1CCC[C@H](NC(=O)c2nccc(OC)c2OC(=O)CCOC)C(=O)O[C@@H](C)[C@@H]1Oc1ccccc1` [F140], for which the pest or weed control at 100 ppm was 80 to 100% in the test with Cercospora beticola; under 0% with Erysiphe cichoracearum; 0 to 80% in the test with Uncinula necator; 80 to 100% in test [1]; 80 to 100% in test [2] (setting [5]); 80 to 100% in test [2] (setting [6]). For the same molecule, the pest or weed control at 100 ppm in test [3] fell in the range of 0 to 80%. Also, the pest or weed control at 25 ppm in the test with Phakopsora pachyrhizi (setting [4]) and in the test on Phakopsora pachyrhizi (setting [7]) was 80 to 100% in each case.
Consider `CCCO[C@H]1CCC[C@H](NC(=O)c2nccc(OC)c2OC(C)=O)C(=O)O[C@@H](C)[C@@H]1Oc1ccccc1` [F141], for which the pest or weed control at 100 ppm in the test with Cercospora beticola is 80 to 100%; in the test with Erysiphe cichoracearum, 0 to 80%; in the test with Uncinula necator, 0 to 80%; in test [1], 80 to 100%; in test [2] (setting [5]), 80 to 100%; in test [2] (setting [6]), 80 to 100%. For the same molecule, the pest or weed control at 100 ppm in test [3] was in the range of 80 to 100%. Moreover, the pest or weed control at 25 ppm with Phakopsora pachyrhizi (setting [4]) and with Phakopsora pachyrhizi (setting [7]) was 80 to 100% each time.
For the molecule `CCCO[C@H]1CCC[C@H](NC(=O)c2nccc(OC)c2OCOC(=O)C(C)C)C(=O)O[C@@H](C)[C@@H]1OC1CCCC1` [F154], the pest or weed control at 100 ppm with Cercospora beticola was 80 to 100%; with Erysiphe cichoracearum, 80 to 100%; in the test with Uncinula necator, 0 to 80%; in test [1], 80 to 100%; in test [2] (setting [5]), 80 to 100%; in test [2] (setting [6]), 80 to 100%. In test [3], the pest or weed control at 100 ppm lay in the range of 80 to 100%. Further, the pest or weed control at 25 ppm with Phakopsora pachyrhizi (setting [4]) and in the test with Phakopsora pachyrhizi (setting [7]) was 80 to 100% throughout.
